Tests used:
[1] = molecular target: T1, rat type 2 11β-hydroxysteroid dehydrogenase (11β-HSD2) (Rattus norvegicus, UniProt P50233); conditions: rat kidney microsome fraction; cited from earlier work
T1 construct: each compound were mixed with the rat kidney microsome fraction, and incubated at 37 °C for 30 min; from tissue; host or cells: rat kidney microsome fraction
T1 sequence (P50233 1-400): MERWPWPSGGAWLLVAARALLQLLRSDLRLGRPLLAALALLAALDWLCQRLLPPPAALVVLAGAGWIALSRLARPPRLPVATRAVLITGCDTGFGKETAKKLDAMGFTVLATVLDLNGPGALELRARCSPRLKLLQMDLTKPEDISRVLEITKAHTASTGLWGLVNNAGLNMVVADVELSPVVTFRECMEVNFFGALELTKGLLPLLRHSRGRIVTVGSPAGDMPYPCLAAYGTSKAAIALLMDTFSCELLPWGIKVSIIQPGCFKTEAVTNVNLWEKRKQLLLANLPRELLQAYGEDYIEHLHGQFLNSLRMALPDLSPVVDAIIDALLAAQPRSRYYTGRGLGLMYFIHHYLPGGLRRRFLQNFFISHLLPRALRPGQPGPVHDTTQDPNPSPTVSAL

OAT1 [2] = molecular target: T2, OAT1 (Homo sapiens, UniProt Q4U2R8); conditions: cited from earlier work
T2 construct: expressed in transfected cells; host or cells: MDCK II cells
T2 sequence (Q4U2R8 1-563): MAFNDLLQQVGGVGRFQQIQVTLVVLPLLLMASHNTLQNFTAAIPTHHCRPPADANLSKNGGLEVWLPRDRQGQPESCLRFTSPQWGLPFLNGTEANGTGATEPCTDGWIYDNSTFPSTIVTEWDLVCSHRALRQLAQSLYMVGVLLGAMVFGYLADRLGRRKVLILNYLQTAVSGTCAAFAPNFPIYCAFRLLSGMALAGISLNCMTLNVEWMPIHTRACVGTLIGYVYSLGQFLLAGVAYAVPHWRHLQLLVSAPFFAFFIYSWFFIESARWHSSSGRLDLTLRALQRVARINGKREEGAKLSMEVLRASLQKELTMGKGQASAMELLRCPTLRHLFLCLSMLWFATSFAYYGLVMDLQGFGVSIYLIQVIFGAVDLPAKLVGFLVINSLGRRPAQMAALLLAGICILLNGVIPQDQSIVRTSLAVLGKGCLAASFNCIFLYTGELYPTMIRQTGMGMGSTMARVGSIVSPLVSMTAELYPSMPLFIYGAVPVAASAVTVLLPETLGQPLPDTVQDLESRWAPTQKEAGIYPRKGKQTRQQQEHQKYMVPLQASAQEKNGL

OAT1 [3] = molecular target: T2, OAT1; assay: Uptake into MDCK II cells stably expressing OAT1; format: cell-based; conditions: pooled EHBR plasma, pH 5.5, 37 °C, 15 min
Description: (§1) Kidneys were collected from normal SD rats, and the kidney slices were incubated with the plasma samples of EHBRs at 37 °C or 4 °C for 2 h (A–C). MDCK II cells stably expressing OAT1 or OAT3 were incubated with the plasma samples of EHBRs at 37 °C for 15 min (D–F). […] Data are expressed as mean ± S.E. (n = 3 for (C, D), and (E); n = 6 for (A, B), and F). *P < 0.05 and **P < 0.01 vs 4 °C group by Student’s t-test for (A–C), and vs mock cells by Dunnett’s multiple t-test for (D–F).
(§2) Uptake studies using rat kidney slices and cells stably expressing OAT1 and OAT3 were conducted with the same protocol as in our previous study.

OAT3 = molecular target: T3, OAT3 (Homo sapiens, UniProt Q8TCC7); assay: Uptake into MDCK II cells stably expressing OAT3; format: cell-based; conditions: pooled EHBR plasma, pH 5.5, 37 °C, 15 min
T3 construct: expressed in transfected cells; host or cells: MDCK II cells
T3 sequence (Q8TCC7 1-542): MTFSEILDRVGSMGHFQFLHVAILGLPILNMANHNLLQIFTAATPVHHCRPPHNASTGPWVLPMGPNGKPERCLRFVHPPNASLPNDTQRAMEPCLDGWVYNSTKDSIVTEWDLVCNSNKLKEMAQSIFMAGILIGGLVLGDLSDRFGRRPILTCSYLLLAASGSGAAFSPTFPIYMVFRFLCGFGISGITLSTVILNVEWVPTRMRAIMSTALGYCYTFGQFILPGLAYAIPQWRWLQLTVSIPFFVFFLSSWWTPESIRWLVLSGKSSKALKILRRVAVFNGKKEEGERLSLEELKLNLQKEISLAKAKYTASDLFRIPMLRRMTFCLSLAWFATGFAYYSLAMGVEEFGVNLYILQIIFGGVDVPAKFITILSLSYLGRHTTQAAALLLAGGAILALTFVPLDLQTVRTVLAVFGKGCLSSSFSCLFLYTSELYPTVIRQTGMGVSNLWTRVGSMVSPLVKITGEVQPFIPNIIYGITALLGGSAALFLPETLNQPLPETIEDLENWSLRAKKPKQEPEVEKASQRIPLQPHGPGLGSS
Description: as §1, §2

Row | Compound | IC50 [1] [µM] | substrate of OAT1 (OAT1 [2]) | uptake into cells expressing OAT1 compared with mock cells (OAT1 [3]) | uptake into cells expressing OAT3 compared with mock cells (OAT3)
1 | CC1(C)[C@@H](O[C@@H]2O[C@H](C(=O)O)[C@@H](O)[C@H](O)[C@H]2O)CC[C@]2(C)[C@H]3C(=O)C=C4[C@@H]5C[C@@](C)(C(=O)O)CC[C@]5(C)CC[C@@]4(C)[C@]3(C)CC[C@@H]12 [3MGA, 3-monoglucuronyl glycyrrhetinic acid, reference compound] | 0.25 | substrate |  | 
2 | CC1(C)[C@@H](OS(=O)(=O)O)CC[C@]2(C)[C@H]3C(=O)C=C4[C@@H]5C[C@@](C)(C(=O)O[C@@H]6O[C@H](C(=O)O)[C@@H](O)[C@H](O)[C@H]6O)C[C@H](O)[C@]5(C)CC[C@@]4(C)[C@]3(C)CC[C@@H]12 [compound 1, 22α-hydroxy-18β-glycyrrhetyl-3-O-sulfate-30-glucuronide] | 2 | substrate |  | 
3 | CC1(C)[C@@H](OS(=O)(=O)O)CC[C@]2(C)[C@H]3C(=O)C=C4[C@@H]5C[C@@](C)(C(=O)O)C[C@H](O)[C@]5(C)CC[C@@]4(C)[C@]3(C)CC[C@@H]12 [compound 2, 22α-hydroxy-18β-glycyrrhetyl-3-O-sulfate] |  |  | significantly higher | significantly higher
4 | CC1(C)[C@@H](OS(=O)(=O)O)CC[C@]2(C)[C@H]3C(=O)C=C4[C@@H]5C[C@@](C)(C(=O)O)CC[C@]5(C)CC[C@@]4(C)[C@]3(C)CC[C@@H]12 [compound 3, 18β-glycyrrhetyl-3-O-sulfate] |  |  | significantly higher | significantly higher
